Measured values: PubChem BioAssay (NCI)
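Protocol summary: plate cells (96-well), add compound at 5 concentrations, incubate 48 h, interpolate endpoints linearly. TGI: total growth inhibition.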

Experiments:
Assay in all cases: NCI-60 cell line screen, 48 h
DLD-1 colon = test system: DLD-1 colon
HOP-18 NSCLC = test system: HOP-18 NSCLC
KM12 colon = test system: KM12 colon
LOX IMVI melanoma = test system: LOX IMVI melanoma
M19-MEL melanoma = test system: M19-MEL melanoma
OVCAR-3 ovarian = test system: OVCAR-3 ovarian
SK-MEL-2 melanoma = test system: SK-MEL-2 melanoma
DMS 114 small cell lung = test system: DMS 114 small cell lung
MALME-3M melanoma = test system: MALME-3M melanoma

Row | SMILES | TGI (DLD-1 colon) [µM] | TGI (HOP-18 NSCLC) [µM] | TGI (KM12 colon) [µM] | TGI (LOX IMVI melanoma) [µM] | TGI (M19-MEL melanoma) [µM] | TGI (OVCAR-3 ovarian) [µM] | TGI (SK-MEL-2 melanoma) [µM] | TGI (DMS 114 small cell lung) [µM] | TGI (MALME-3M melanoma) [µM]
1 | CC(C)(C)c1cc(CCC(=O)Nc2ccc(Cl)cc2)nc(NC#N)n1 | > 100 | > 100 | > 100 | > 100 | > 100 | > 100 | > 100 |  | 
2 | Cc1ccc(NC(=O)CC(=O)n2nc(C)c(N=Nc3ccccc3C(=O)O)c2C)cc1 | > 100 |  | > 100 | > 100 | > 100 | > 100 | > 100 | > 100 | > 100
3 | CCCC1N2CCCCC2[C@@H]2c3[nH]c4ccccc4c3CCN12 (some centres undefined) | > 100 | > 100 |  |  | > 100 | > 100 | > 100 | > 100 | > 100
4 | N#C/C(=C\c1ccc2ccccc2c1)c1ccccc1 | > 100 | > 100 | > 100 | > 100 | > 100 | 28.3 | 85 |  | 
5 | O=C(N/C(=C\c1cccc([N+](=O)[O-])c1)c1nc2ccc([N+](=O)[O-])cc2[nH]1)c1ccccc1 | > 100 |  | > 100 |  | > 100 | > 100 | 61 |  | > 100
6 | NC12CC3CC(C1)CC(C(=O)O)(C3)C2 | > 100 | > 100 | > 100 | > 100 | > 100 | > 100 |  | > 100 | 
7 | COCCCNC(=O)C1C(=O)C(=O)N(CCCOC)C1=O (centres undefined) | > 100 | > 100 |  | > 100 | > 100 | > 100 | > 100 | > 100 | > 100
8 | CN(C)CCNC(=O)c1cccc2ccc(-c3ccncc3)nc12 | 31 | 9.18 | 54.3 |  | 4.86 | 14.4 | 13.3 | 8.95 | 
9 | CC(=O)OCC1OC(NC(=S)N/N=C2\CC(c3ccccc3)Oc3ccccc32)C(OC(C)=O)C(OC(C)=O)C1OC(C)=O (centres undefined) | > 100 | > 100 | > 100 | > 100 | > 100 | > 100 |  | > 100 | > 100
10 | CCOC(=O)/C(=C\c1ccccc1)C(=O)O |  |  | > 100 | > 100 | > 100 | > 100 | > 100 | > 100 | > 100
11 | O=C(O)CCSC(=O)Nc1ccc([N+](=O)[O-])cc1 | > 100 |  | > 100 | > 100 |  | > 100 | > 100 | > 100 | 
12 | COc1ccc(NC(=O)CC(=O)N/N=C/c2ccc(N(CCC#N)S(C)(=O)=O)cc2)cc1 | > 100 | > 100 | > 100 | > 100 | > 100 | > 100 | > 100 | > 100 | > 100
13 | COc1cc(Nc2nc3ccccc3nc2-c2cccs2)cc(OC)c1OC | > 100 | > 100 |  | > 100 | > 100 | > 100 | > 100 |  | > 100
